Measurements taken from US20250130239A1, “PROTEIN DEGRADER” (University of Dundee, priority 2021, published 2025).

Assays:
BromoTag-Brd2 [1] = target: T1, BromoTag-Brd2 (Homo sapiens, UniProt O60885+P40337, L387A); experiment: Dose-response degradation assay (western blot, 6 h) in heterozygous BromoTag-Brd2 HEK293 cells; format: cell-based; conditions: 6 h; for pDC50: 8-point 10 μM-1 nM, mean (±S.E.) of two repeats
T1 construct: comprising residues 368-440 of human Brd4; Brd2 (endogenous protein, fusion partner in the same polypeptide); eGFP-P2A (upstream marker in the knock-in cassette) (N, cleaved yes); expressed in transfected cells; host or cells: HEK293, heterozygous CRISPR knock-in at the endogenous BRD2 locus
Protocol: Dose-response Degradation Assays. All dose-response degradation assays were performed on the genotype verified heterozygous BromoTag-Brd2 HEK293 cell line. Heterozygous BromoTag-Brd2 HEK293 cells were plated at a density of 5×10^5 cells per well of a six healthy plate a day before initiation of the titration experiment. PROTAC compounds were dissolved in DMSO at a concentration of 10 mM, from these stock concentrations, PROTAC compounds were diluted to appropriate concentrations using DMSO in the range of 10 μM-1 nM. […] Control compounds such as MZ1, cis-MZ1 were similarly dissolved in DMSO to the appropriate concentration. […] Cells were washed twice with PBS before being harvested.
Western Blotting. […] The membranes were blocked for 1 h prior to incubation with the primary antibodies using 5% Milk TBST. […] Following overnight incubation with the primary antibodies at 4° C., the membranes were incubated with secondary antibodies (Anti-rabbit, Abcam AB216773, 1:5000 or anti-mouse, Abcam AB216774, 1:5000) and hFAB™ Rhodamine Anti-Tubulin Antibody (Biorad, 12004165, 1:10000) for one h and then imaged with a Bio-Rad imager (LI-COR Biosciences). All western blots were analysed for band intensities using Image Lab from Bio-Rad (LI-COR, Biosciences). The data extracted from these blots were then plotted and analysed using Prism (v. 8.2.0, GraphPad).

BromoTag-Brd2 [2] = target: T1, BromoTag-Brd2; experiment: Time-course degradation assay in heterozygous BromoTag-Brd2 HEK293 cells; format: cell-based; conditions: 500 nM 47, 1 μM 48; over 36 h
Protocol: Time-course Degradation Assay. Time-course degradation assays using PROTACs AGB1, AGB2, and AGB3 were performed on the genotype verified heterozygous BromoTag-Brd2 HEK293 cell line. Heterozygous BromoTag-Brd2 HEK293 cells were plated at a density of 5×10^5 cells per well of a 6 healthy plate a day prior to initiation of the Timecourse assay. PROTAC's AGB1 & AGB2 were diluted in DMSO to a concentration of 1 mM prior to being further diluted 1:2000 in 2 mL of DMEM to a concentration of 500 nM per timepoint. PROTAC AGB3 was diluted in DMSO to a concentration of 2 mM prior to being further diluted 1:2000 in 2 mL of DMEM to a concentration of 1 μM per timepoint. Timepoint range was between 0-36 h. Treatment was applied in a staggered fashion to enable all timepoints to be harvested at the same time.
Western Blotting. All cells were harvested on ice with RIPA lysis, and extraction buffer (ThermoFisher Scientific, 89901) supplemented with protease inhibitor cocktail (Merck, 11697498001) and Benzonase® Nuclease (Sigma, E1014) before being store at −20° C. prior to use. Total protein quantity was determined using the BCA protein assay (#23225, Pierce, Rockford, Illinois). Protein concentration was determined using the BCA assay (ThermoFisher Scientific, 23225). Samples were then prepared and loaded onto NuPAGE™ 4-12% Bis-Tris Midi gels (ThermoFisher Scientific, WG1403A), followed by the transfer of the proteins onto nitrocellulose membranes (EMD Millipore). The membranes were blocked for 1 h prior to incubation with the primary antibodies using 5% Milk TBST. Membranes were probed for Brd2 (Abcam, Ab139690, 1:1000), Brd3 (Abcam, Ab50818, 1:4000), Brd4 (Abcam, Ab128874, 1:1000) or our polyclonal Brd4^BD2 L387A antibody. […] All western blots were analysed for band intensities using Image Lab from Bio-Rad (LI-COR, Biosciences). The data extracted from these blots were then plotted and analysed using Prism (v. 8.2.0, GraphPad).

VHL (VCB protein) = target: T2, VHL (VCB protein) (Homo sapiens, UniProt P40337); experiment: Fluorescence polarization competitive binding assay, binary binding; conditions: compound alone; displacement of HIF-1a peptide probe; read-out: binary affinity to VHL Kd
T2 construct: N-terminally Hiss-tagged VHL (54-213); His6 (N, cleaved yes); made in house; host or cells: E. coli
Protocol: (§1) Protein Expression and Purification. […] The complex was further purified by anion exchange followed by gel filtration chromatography.
(§2) Fluorescence Polarization Binding Assay. […] All components were dissolved from stock solutions using 100 mM Bis-Tris propane, 100 mM NaCl, 1 mM DTT, pH 7.0, to yield a final assay volume of 15 μL. DMSO was added as appropriate to ensure a final concentration of 2% v/v. […] Percentage displacement values were obtained by normalization of controls were plotted against Log[Compound]. IC50 values were determined for each titration using nonlinear regression analysis with Prism (v. 9.1.0, GraphPad). […] Cooperativity values (a) for each PROTAC were calculated using the ratio: α=binary Kd (−bromodomain)/ternary Kd (+bromodomain).

[3] = target: T3, VHL, compound preincubated with Brd4^BD2 L387A (Homo sapiens, UniProt O60885+P40337, L387A); experiment: Fluorescence polarization competitive binding assay, ternary complex binding; conditions: displacement of HIF-1a peptide probe, read-out: ternary binding affinity Kd
T3 construct: N-terminally Hiss-tagged VHL (54-213); N-terminally His6-tagged Brd4-BD2^L387A (333-460) was expressed in E. coli; His6 (N, cleaved yes); made in house; host or cells: E. coli
Protocol: as §1, §2

[4] = system: untagged Brd2 and endogenous Brd3 and Brd4; experiment: Off-target degradation of endogenous BET proteins (western blot) in BromoTag-Brd2 HEK293 cells; format: cell-based, human; conditions: 1 nM to 10 μM; 6 h
Protocol: (§3) Dose-response Degradation Assays. All dose-response degradation assays were performed on the genotype verified heterozygous BromoTag-Brd2 HEK293 cell line. Heterozygous BromoTag-Brd2 HEK293 cells were plated at a density of 5×10^5 cells per well of a six healthy plate a day before initiation of the titration experiment. PROTAC compounds were dissolved in DMSO at a concentration of 10 mM, from these stock concentrations, PROTAC compounds were diluted to appropriate concentrations using DMSO in the range of 10 μM-1 nM. The compounds were then added to a 2 mL of DMEM (Invitrogen, Carlsebad, CA, USA) supplemented with 10% (v/v) Fetal bovine serum (FBS) (Thermo Fisher, Waltham, MA, USA) and 1% (v/v) penicillin/streptomycin (pen/strep) (#15140122, Thermo Fisher, Waltham, MA, USA) and added to the cells at initiation of the experiment. Control compounds such as MZ1, cis-MZ1 were similarly dissolved in DMSO to the appropriate concentration. All titration experiment were performed for a total of 6 hours prior to being harvested and were kept at 37° C., 5% CO2, and 95% humidity once treatment was applied until right before harvesting. Cells were washed twice with PBS before being harvested.
(§4) Western Blotting. […] Total protein quantity was determined using the BCA protein assay (#23225, Pierce, Rockford, Illinois). Protein concentration was determined using the BCA assay (ThermoFisher Scientific, 23225). […] All western blots were analysed for band intensities using Image Lab from Bio-Rad (LI-COR, Biosciences). The data extracted from these blots were then plotted and analysed using Prism (v. 8.2.0, GraphPad).
Development of a Knock-in Cell Line with BromoTag fused to endogenous Brd2 using CRISPR. […] To this end, the endogenous BET family protein Brd2 was chosen as a model target, due to the availability of well-established antibody for Brd2 detection, and expression of a single protein isoform as well detected band in the western blot (Filippakopoulos, P.; Knapp, S., Nat Rev Drug Discov. 2014, 13 (5), 337-356). […]

Brd3 = target: T4, Brd3 (Homo sapiens, UniProt Q15059); experiment: Off-target degradation of Brd3 (western blot) in BromoTag-Brd2 HEK293 cells; format: cell-based
T4 construct: endogenous Brd3 and Brd4; endogenous in cells; host or cells: heterozygous BromoTag-Brd2 HEK293 cells
Protocol: as §3, with “All titration experiment were performed for a total of 6 hours prior to being harvested and were kept at 37° C., 5% CO2, and 95% humidity once treatment was applied until right before harvesting. Cells were washed twice with PBS before being harvested.” left out
as §4

Compound	DC50 (BromoTag-Brd2 [1]; range over the two antibodies) [nM]	pDC50 (BromoTag-Brd2 [1]; Ab: Brd4^BD2 L387A, single stereoisomers)	pDC50 (BromoTag-Brd2 [1]; Ab: BromoTag-Brd2, single stereoisomers)	Dmax (BromoTag-Brd2 [1]; HEK293, Ab: Brd4^BD2 L387A, single stereoisomers) [%]	extent of BromoTag-Brd2 degradation in the time course (BromoTag-Brd2 [2])	Kd (VHL (VCB protein)) [nM]	Kd [3] [nM]	off-target degradation of untagged Brd2 or the other endogenous BET proteins [4]	off-target degradation of Brd3 (Brd3; at 1 μM, 6 h)	off-target degradation of Brd3 (Brd3; at 100-1,000 nM)
CC[C@@H](C(=O)NCCOCCOCCOCC(=O)N[C@H](C(=O)N1C[C@H](O)C[C@H]1C(=O)NCc1ccc(-c2scnc2C)cc1)C(C)(C)C)[C@@H]1N=C(c2ccc(Cl)cc2)c2c(sc(C)c2C)-n2c(C)nnc21 (single isomer, unassigned) [AGB3 (48)]	210 to 290	6.5 ± 0.3	6.7 ± 0.1	92	~80%	102	9	–	–	–
CC[C@@H](C(=O)OCCOCCCOCC(=O)N[C@H](C(=O)N1C[C@H](O)C[C@H]1C(=O)N[C@@H](C)c1ccc(-c2scnc2C)cc1)C(C)(C)C)[C@@H]1N=C(c2ccc(Cl)cc2)c2c(sc(C)c2C)-n2c(C)nnc21 (relative stereo) [ET-OARV-771 (25), 2-(3-(2-(((S)-1-((2S,4R)-4-hydroxy-2-(((S)-1-(4-(4-methylthiazol-5-yl)phenyl)ethyl)carbamoyl)pyrrolidin-1-yl)-3,3-dimethyl-1-oxobutan-2-yl)amino)-2-oxoethoxy)propoxy)ethyl (R*)-2-((S*)-4-(4-chlorophenyl)-2,3,9-trimethyl-6H-thieno[3,2-f][1,2,4]triazolo[4,3-a][1,4]diazepin-6-yl)butanoate]	–	–	–	–	–	–	–	no observable off-target degradation	minor off-target degradation	–
CC[C@@H](C(=O)OCCOCCCOCC(=O)N[C@H](C(=O)N1C[C@H](O)C[C@H]1C(=O)N[C@@H](C)c1ccc(-c2scnc2C)cc1)C(C)(C)C)[C@@H]1N=C(c2ccc(Cl)cc2)c2c(sc(C)c2C)-n2c(C)nnc21 (single isomer, unassigned) [AGB2 (47)]	–	–	–	–	near complete target degradation	45	12	–	–	minor off-target degradation
